According to article PMC8151276, “An Integrated Approach toward NanoBRET Tracers for Analysis of GPCR Ligand Engagement” (Molecules, 2021):

Key:
FZD9 = target: T1, FZD9 (Homo sapiens, UniProt O00144); test: NanoBRET screen HiBiT-FZD9 in HEK293; assay type: binding; details: FZD9
T1 construct: purchased Promega (in-house HiBiT-GPCR construct library, NanoBRET)
T1 sequence (O00144 23-591): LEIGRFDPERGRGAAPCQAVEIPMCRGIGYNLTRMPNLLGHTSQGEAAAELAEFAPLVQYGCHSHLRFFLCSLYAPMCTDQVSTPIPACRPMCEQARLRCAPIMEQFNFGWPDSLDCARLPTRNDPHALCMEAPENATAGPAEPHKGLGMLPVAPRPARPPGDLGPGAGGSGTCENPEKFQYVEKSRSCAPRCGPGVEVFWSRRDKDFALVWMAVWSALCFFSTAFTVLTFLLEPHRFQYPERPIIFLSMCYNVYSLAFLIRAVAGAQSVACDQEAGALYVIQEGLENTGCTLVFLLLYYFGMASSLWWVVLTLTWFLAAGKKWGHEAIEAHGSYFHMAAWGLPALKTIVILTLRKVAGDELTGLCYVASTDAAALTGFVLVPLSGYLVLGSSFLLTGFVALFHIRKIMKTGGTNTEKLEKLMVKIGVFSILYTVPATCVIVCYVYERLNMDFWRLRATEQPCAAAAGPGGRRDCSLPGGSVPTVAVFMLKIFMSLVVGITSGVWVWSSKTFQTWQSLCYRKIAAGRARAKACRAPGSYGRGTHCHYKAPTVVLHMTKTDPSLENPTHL
Description: (§1) Each tracer candidate was screened across the entire library of HiBiT-GPCR constructs using NanoBRET as the detection modality. As depicted in Figure 4A, the specificity of interactions was evaluated through decrease in BRET due to competitive displacement of a bound tracer by excess parental compound. Each tracer was analyzed for binding to each HiBiT-GPCR fusion in the absence and in the presence of competing parental compound. Briefly, HEK293 cells were transfected with HiBiT-GPCR constructs diluted into promoterless DNA to reduce expression and maximize translocation to the cell surface. Each tracer candidate was then screened at concentrations of 1 μM and 0.1 μM across cells expressing these fusions. Cells were treated for 1.5 h with tracer either alone or in the presence of 20 μM competing parental compound (i.e., control). BRET was measured upon addition of purified LgBiT and subsequent complementation with HiBiT genetically fused to a GPCR. The specificity of interactions was assessed through a decrease in BRET signal due to competitive displacement of the bound tracer. To further gauge the robustness of these interactions, the fold response over the control (i.e., BRETtracer/BRETcontrol) was calculated. We chose a 1.5-fold response, which translates to ≥7-fold signal over noise as the minimal threshold required to score an interaction as positive. […]. Below we highlight the screening results obtained for our exemplary fluorescent tracers based on Clozapine, Amitriptyline and AZD1283.
(§2) HiBiT-GPCR DNA constructs were diluted in 10 mM Tris pH 8 to a final concentration of 0.01 μg/μL, arrayed in 96-well plates and stored at −20 °C. For transfection, HEK293 cells were suspended in Opti-MEM (without phenol red) supplemented with 2% fetal bovine serum (Seradigm) and 100 units/mL penicillin–streptomycin (Gibco) at a final concentration of 220,000 cells/mL and dispensed into white 96-well plates at 90 μL/well. Subsequent transfections and screens were carried using an Agilent Bravo Automated Liquid Handling Platform. First, the 96-well HiBiT DNA arrays were diluted 25-fold in Opti-MEM (without serum or phenol red) to a final concentration of 0.0004 μg/μL and 20 μL of the diluted DNAs were transferred into new 96-well plates. Next, promoterless carrier DNA (1 μg/μL) was diluted 25-fold (0.04 μg/μL) and then dispensed into the diluted arrays at 20 μL/well. Following brief mixing, Viafect transfection reagent (Promega) diluted 16-fold into Opti-MEM was dispensed into the plates at 40 μL/well. After mixing by pipetting, plates were incubated for 10 min on the pipetting station deck. The DNA-transfection reagent complexes were then added to plates containing cells. To facilitate the screen, 10 μL of DNA-transfection reagent complexes were added in duplicates to the top 4 and bottom 4 rows, resulting in two identical 48-well arrays per plate. Plates with transfected cells were incubated for 18–20 h at 37 °C/5% CO2. A screen of each tracer across the entire library using two different concentrations requires duplicate plates of transfected cells. Depending on the number of tracers being screened, transfections can be scaled up using the same ratios. The next day, for each tracer, four 20× screening solutions in tracer dilution buffer (Promega) were prepared: two duplicates at final concentration of 20 μM and two duplicates at a final concentration of 2 μM. A competing unmodified compound was added to one of each duplicate at a final concentration of 400 μM. The four resulting solutions were diluted 4-fold in Opti-MEM without serum or phenol red to generate 5× solutions (5 µM and 0.5 µM tracer +/− 100 μM competing compound). To screen the library, a BioTek MultiFlo FX liquid dispenser was used to dispense 22.5 µL of tracer solution to the top 4 rows and 22.5 µL tracer + competing compound solution to the 4 bottom rows. Plates were briefly mixed on an orbital shaker and incubated for 1.5 h at room temperature. […]

AGTR2 = target: T2, AGTR2 (Homo sapiens, UniProt P50052); test: NanoBRET screen HiBiT-AGTR2 in HEK293; assay type: binding; details: AGTR2
T2 construct: purchased Promega (in-house HiBiT-GPCR construct library, NanoBRET)
T2 sequence (P50052 1-363): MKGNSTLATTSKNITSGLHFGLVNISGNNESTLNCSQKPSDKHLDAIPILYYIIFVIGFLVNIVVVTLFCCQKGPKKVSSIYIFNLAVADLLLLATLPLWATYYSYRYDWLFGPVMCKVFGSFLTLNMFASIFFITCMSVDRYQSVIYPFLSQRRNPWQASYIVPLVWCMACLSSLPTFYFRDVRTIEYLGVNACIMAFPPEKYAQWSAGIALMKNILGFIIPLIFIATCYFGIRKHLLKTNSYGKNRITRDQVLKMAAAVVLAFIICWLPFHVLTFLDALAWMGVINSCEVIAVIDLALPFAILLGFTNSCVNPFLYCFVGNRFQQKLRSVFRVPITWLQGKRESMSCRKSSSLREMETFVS
Description: as §1, §2

SMILES | NanoBRET Fold Response (FZD9; tracer 0.1μM) | NanoBRET Fold Response (FZD9; tracer 1μM) | NanoBRET Fold Response (AGTR2; tracer 0.1μM) | NanoBRET Fold Response (AGTR2; tracer 1μM)
Cc1nc2n(c(=O)c1CCN1CCC(c3noc4cc(F)ccc34)CC1)CCCC2OC(=O)NCCOCCOCCOCCOCCNC(=O)CCc1ccc2n1[B-](F)(F)[N+]1=C(c3ccc[nH]3)C=CC1=C2 (stereo not shown) [Risperidone-2-NB590] | 1.00 | 0.99 | 1.10 | 0.94
CC(C)N(CC[C@H](c1ccccc1)c1cc(CCNC(=O)CCOCCOCCOCCOCCNC(=O)CCc2ccc3n2[B-](F)(F)[N+]2=C(c4ccc[nH]4)C=CC2=C3)ccc1O)C(C)C [Tolterodine-2-NB590] | 0.96 | 0.85 | 1.10 | 1.07
CC(C)N(CC[C@H](c1ccccc1)c1cc(CCNC(=O)c2ccc(CNC(=O)CCc3ccc4n3[B-](F)(F)[N+]3=C(c5ccc[nH]5)C=CC3=C4)cc2)ccc1O)C(C)C [Tolterodine-BZ-NB590] | 0.95 | 1.04 | 0.96 | 0.95
CCCn1c(=O)c2[nH]c(-c3ccc(OCC(=O)NCCNC(=O)CCOCCNC(=O)c4ccc(CNC(=O)CCc5ccc6n5[B-](F)(F)[N+]5=C(c7ccc[nH]7)C=CC5=C6)cc4)cc3)nc2n(CCC)c1=O [XAC-3-NB590] | 1.00 | 1.07 | 1.24 | 1.09
